This note sets out measurements from ChEMBL document CHEMBL5291721, “A preclinical secondary pharmacology resource illuminates target-adverse drug reaction associations of marketed drugs” (Nat Commun, 2023).

Some targets named below: Vasopressin V1a receptor (Homo sapiens, UniProt P37288); Melanocortin receptor 3 (Homo sapiens, UniProt P41968); D(3) dopamine receptor (Homo sapiens, UniProt P35462).
In assay [1] the target is T1, Type-1 angiotensin II receptor (Homo sapiens, UniProt P30556).
T1 sequence (P30556 whole entry): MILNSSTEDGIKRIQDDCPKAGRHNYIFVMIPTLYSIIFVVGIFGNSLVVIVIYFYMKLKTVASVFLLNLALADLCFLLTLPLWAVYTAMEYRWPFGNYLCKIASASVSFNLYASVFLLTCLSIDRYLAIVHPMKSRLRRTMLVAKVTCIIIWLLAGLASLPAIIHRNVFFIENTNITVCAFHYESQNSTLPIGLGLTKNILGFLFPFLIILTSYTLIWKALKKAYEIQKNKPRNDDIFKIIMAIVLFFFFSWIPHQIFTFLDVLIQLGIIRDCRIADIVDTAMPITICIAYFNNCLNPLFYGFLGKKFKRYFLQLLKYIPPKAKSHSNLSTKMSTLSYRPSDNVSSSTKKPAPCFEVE

Assay [2] has as its target T2, Gastrin/cholecystokinin type B receptor (Homo sapiens, UniProt P32239).
T2 sequence (P32239 whole entry): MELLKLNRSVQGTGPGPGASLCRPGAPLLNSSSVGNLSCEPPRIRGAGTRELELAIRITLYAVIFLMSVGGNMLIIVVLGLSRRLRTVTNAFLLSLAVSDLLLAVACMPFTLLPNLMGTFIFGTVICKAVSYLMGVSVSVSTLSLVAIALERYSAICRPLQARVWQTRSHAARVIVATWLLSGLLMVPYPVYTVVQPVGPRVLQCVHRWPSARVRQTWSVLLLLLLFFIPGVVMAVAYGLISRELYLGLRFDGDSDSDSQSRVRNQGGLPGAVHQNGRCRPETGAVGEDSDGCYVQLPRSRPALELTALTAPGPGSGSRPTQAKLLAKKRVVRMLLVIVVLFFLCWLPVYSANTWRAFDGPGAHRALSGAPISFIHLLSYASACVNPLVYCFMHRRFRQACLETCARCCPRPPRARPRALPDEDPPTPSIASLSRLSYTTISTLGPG

The target of the next assay is Cannabinoid receptor 1 (Homo sapiens, UniProt P21554). Type of assay: functional, cell-based.
Assay [3] has as its target Growth hormone secretagogue receptor type 1 (Homo sapiens, UniProt Q92847).
Assay [4] has as its target 5-hydroxytryptamine receptor 2B (Homo sapiens, UniProt P41595). Format: functional, cell-based.
Another assay addresses T3, Thromboxane A2 receptor (Homo sapiens, UniProt P21731).
T3 sequence (P21731 whole entry): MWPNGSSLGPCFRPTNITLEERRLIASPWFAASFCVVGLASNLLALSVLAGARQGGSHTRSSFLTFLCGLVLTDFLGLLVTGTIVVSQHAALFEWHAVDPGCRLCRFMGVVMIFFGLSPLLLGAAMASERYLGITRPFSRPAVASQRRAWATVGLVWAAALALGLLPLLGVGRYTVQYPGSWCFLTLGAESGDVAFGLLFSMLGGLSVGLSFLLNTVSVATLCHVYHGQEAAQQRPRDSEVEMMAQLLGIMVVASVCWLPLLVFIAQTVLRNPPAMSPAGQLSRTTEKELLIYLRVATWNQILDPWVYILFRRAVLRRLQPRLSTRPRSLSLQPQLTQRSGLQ

Assay [5] addresses Sodium-dependent noradrenaline transporter (Homo sapiens, UniProt P23975).
The target in a further assay is T4, Progesterone receptor (Homo sapiens, UniProt P06401).
T4 sequence (P06401 whole entry): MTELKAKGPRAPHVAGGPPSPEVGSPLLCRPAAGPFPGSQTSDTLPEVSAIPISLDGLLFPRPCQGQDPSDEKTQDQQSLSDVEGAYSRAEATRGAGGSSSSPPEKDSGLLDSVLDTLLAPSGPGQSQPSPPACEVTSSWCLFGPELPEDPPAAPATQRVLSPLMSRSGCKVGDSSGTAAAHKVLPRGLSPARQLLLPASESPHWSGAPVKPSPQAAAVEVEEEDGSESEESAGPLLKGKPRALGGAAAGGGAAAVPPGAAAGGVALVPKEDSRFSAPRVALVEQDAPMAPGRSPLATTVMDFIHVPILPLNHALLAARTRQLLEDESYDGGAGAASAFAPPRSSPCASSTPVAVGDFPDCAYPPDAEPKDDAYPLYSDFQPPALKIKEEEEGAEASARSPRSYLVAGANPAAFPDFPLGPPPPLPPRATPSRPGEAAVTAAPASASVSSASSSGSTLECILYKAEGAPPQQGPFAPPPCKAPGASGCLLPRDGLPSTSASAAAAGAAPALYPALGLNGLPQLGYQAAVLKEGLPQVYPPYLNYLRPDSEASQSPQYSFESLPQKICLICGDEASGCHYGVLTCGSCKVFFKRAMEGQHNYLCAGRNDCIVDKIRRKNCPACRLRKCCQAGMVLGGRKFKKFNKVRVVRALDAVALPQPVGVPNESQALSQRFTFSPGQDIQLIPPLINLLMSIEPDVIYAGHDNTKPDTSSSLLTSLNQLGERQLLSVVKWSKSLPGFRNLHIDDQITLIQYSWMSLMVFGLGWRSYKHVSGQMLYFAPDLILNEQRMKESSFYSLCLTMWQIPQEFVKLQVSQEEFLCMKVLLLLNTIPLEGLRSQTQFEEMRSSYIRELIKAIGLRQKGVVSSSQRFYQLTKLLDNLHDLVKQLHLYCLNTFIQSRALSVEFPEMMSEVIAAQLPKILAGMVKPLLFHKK
Format: functional.
Note: assay procedure not described here.

Sodium-dependent noradrenaline transporter, sequence (P23975 whole entry): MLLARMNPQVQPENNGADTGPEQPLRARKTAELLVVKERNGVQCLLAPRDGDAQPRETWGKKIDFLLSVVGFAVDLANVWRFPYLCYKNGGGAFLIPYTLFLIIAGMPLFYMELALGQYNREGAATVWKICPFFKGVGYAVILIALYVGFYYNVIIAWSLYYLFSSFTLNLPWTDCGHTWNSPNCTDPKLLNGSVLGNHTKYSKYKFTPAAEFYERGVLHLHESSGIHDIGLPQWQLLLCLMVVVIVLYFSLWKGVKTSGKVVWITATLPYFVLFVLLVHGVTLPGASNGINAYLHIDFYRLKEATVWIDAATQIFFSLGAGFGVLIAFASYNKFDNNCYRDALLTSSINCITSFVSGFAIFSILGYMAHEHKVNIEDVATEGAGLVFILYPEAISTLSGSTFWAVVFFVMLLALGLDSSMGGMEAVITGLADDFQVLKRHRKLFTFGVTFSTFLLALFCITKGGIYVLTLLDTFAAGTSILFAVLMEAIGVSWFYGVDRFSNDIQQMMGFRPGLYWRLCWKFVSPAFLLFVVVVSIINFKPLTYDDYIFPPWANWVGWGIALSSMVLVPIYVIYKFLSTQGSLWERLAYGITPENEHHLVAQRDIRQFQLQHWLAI
Vasopressin V1a receptor, sequence (P37288 whole entry): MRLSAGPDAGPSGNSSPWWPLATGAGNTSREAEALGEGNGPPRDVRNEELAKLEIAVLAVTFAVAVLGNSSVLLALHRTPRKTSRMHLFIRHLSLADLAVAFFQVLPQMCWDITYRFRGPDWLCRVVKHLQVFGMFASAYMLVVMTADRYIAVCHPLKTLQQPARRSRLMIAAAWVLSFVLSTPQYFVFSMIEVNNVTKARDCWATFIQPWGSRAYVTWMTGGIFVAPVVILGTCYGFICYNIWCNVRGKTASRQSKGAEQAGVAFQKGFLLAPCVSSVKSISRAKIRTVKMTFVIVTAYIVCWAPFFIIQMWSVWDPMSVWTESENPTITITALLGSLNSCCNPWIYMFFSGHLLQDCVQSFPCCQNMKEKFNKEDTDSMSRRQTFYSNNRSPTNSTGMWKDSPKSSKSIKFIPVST
5-hydroxytryptamine receptor 2B, sequence (P41595 whole entry): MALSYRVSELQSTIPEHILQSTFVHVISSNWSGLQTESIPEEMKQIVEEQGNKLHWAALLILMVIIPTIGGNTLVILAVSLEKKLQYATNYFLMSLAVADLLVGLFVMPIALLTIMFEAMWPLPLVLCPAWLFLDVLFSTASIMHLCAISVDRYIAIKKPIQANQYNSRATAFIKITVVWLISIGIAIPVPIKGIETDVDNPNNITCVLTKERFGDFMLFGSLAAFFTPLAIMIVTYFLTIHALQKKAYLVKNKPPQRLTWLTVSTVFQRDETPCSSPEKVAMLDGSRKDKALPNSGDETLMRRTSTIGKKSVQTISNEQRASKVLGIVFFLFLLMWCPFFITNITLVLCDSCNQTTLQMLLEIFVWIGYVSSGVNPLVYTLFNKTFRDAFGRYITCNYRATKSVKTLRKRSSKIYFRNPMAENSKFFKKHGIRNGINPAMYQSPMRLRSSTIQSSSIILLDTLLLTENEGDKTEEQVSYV
Melanocortin receptor 3, sequence (P41968 whole entry): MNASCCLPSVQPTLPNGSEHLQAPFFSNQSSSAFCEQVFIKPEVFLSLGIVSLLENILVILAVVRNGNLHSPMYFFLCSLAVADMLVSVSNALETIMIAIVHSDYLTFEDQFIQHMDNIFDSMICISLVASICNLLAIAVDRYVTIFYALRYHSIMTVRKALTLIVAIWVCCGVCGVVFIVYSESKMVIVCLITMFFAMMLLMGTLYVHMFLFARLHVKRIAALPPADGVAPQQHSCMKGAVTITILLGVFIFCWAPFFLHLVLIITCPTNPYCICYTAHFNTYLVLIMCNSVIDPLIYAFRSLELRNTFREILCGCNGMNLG
Cannabinoid receptor 1, sequence (P21554 whole entry): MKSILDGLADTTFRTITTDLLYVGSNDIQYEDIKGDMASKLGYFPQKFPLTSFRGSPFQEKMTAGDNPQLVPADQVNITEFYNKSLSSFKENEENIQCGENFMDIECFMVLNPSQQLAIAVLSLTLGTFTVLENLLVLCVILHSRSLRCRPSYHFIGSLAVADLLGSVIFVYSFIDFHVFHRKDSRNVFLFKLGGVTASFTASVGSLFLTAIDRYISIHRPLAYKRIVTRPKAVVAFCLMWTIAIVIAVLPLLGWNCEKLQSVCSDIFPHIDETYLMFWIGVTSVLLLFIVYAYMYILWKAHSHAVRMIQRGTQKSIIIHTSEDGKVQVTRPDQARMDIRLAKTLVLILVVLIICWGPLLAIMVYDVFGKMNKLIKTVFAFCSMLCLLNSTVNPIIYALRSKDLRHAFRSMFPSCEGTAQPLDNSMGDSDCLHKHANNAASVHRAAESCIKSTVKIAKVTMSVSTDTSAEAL
Growth hormone secretagogue receptor type 1, sequence (Q92847 whole entry): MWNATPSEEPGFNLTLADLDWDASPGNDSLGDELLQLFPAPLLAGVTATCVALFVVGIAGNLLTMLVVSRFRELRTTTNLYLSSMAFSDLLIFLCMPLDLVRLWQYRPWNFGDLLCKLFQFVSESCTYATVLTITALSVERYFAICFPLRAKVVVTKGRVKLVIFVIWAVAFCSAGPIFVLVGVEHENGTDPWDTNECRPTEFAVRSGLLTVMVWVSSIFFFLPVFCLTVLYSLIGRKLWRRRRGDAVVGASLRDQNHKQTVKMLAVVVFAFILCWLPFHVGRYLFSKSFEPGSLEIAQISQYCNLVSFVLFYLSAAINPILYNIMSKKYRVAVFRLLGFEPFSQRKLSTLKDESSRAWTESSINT
D(3) dopamine receptor, sequence (P35462 whole entry): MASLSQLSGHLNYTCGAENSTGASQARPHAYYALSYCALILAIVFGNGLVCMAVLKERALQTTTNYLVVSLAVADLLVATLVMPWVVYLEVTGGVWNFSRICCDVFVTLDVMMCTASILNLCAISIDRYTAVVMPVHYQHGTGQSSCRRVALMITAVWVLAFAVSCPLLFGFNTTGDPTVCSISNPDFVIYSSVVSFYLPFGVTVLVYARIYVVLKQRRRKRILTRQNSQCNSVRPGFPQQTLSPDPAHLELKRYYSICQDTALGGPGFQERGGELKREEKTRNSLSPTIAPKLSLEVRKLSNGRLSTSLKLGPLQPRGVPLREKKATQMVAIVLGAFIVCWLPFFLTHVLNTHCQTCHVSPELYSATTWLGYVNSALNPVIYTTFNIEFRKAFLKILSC

Take `COc1ccc2cccc(CCNC(C)=O)c2c1` [AGOMELATINE]: the AC50 in assay [1] was above 30 µM; at Vasopressin V1a receptor, above 10 µM; in assay [2], above 30 µM; on Cannabinoid receptor 1, above 30 µM; in assay [3] it was above 30 µM; in [4], 2.07 µM. Further, the AC50 on Melanocortin receptor 3 was above 30 µM; on Thromboxane A2 receptor it was above 30 µM; in assay [5] it was above 10 µM; at D(3) dopamine receptor it was above 10 µM.

For `CC(C)c1c(C(=O)Nc2ccccc2)c(-c2ccccc2)c(-c2ccc(F)cc2)n1CC[C@@H](O)C[C@@H](O)CC(=O)O` [ATORVASTATIN], the AC50 (in [1]; on Vasopressin V1a receptor; in assay [2]; on Cannabinoid receptor 1; in assay [3]; on Melanocortin receptor 3) was above 30 µM in each case. Also, the AC50 (on Thromboxane A2 receptor; in assay [5]; on D(3) dopamine receptor) was above 30 µM in each case.

As for `CC(=O)O[C@@]12CO[C@@H]1C[C@H](O)[C@@]1(C)C(=O)[C@H](O)C3=C(C)[C@@H](OC(=O)[C@H](O)[C@@H](NC(=O)OC(C)(C)C)c4ccccc4)C[C@@](O)([C@@H](OC(=O)c4ccccc4)[C@H]21)C3(C)C` [DOCETAXEL ANHYDROUS], the AC50 in assay [1] is above 30 µM; in [2], 19.2 µM; in assay [3] it was above 30 µM; in assay [4] it was above 30 µM; at Melanocortin receptor 3, above 30 µM; at Progesterone receptor, above 30 µM. For the same compound, the AC50 (at Thromboxane A2 receptor; in [5]; at D(3) dopamine receptor) was above 30 µM each time.

Turning to `CN[C@@H](C)[C@H](O)c1ccccc1` [EPHEDRINE], the AC50 in assay [1] is above 30 µM; on Vasopressin V1a receptor, above 10 µM; in assay [2], above 30 µM; on Cannabinoid receptor 1, above 30 µM; in assay [3] it was above 30 µM; in assay [4], above 10 µM. Besides, the AC50 on Melanocortin receptor 3 is above 30 µM; at Thromboxane A2 receptor, above 30 µM; in assay [5], above 10 µM; on D(3) dopamine receptor, above 10 µM.

Consider `CCNC(C)Cc1cccc(C(F)(F)F)c1` (configuration not stated) [FENFLURAMINE], for which the AC50 in assay [1] is above 30 µM; on Vasopressin V1a receptor, above 10 µM; in assay [2], above 30 µM; at Cannabinoid receptor 1, above 30 µM; in [3] it was above 30 µM; on Melanocortin receptor 3, above 30 µM. The figures for the AC50 on Thromboxane A2 receptor and at D(3) dopamine receptor were above 30 µM and 8 µM, respectively.

`COc1c(N2CCNC(C)C2)c(F)cc2c(=O)c(C(=O)O)cn(C3CC3)c12` (configuration not stated) [GATIFLOXACIN]: the concentration at half-maximal activity (AC50) (in assay [1]; in [3]; in assay [4]; at Melanocortin receptor 3; at Progesterone receptor; on Thromboxane A2 receptor) was above 10 µM in each case. Besides, the AC50 in assay [5] is above 10 µM; on D(3) dopamine receptor, above 30 µM.

As for `CCN1CCC[C@H]1CNC(=O)c1cc(S(N)(=O)=O)ccc1OC` [LEVOSULPIRIDE], the AC50 was above 30 µM in assay [1]; above 30 µM on Vasopressin V1a receptor; above 30 µM in assay [2]; above 30 µM on Cannabinoid receptor 1; above 30 µM in assay [3]; above 10 µM in assay [4]. Moreover, the AC50 (on Melanocortin receptor 3; at Thromboxane A2 receptor; in [5]) was above 30 µM in each case.

Regarding `COc1ccccc1OCC(O)COC(N)=O` (configuration not stated) [METHOCARBAMOL], the AC50 in assay [1] was above 30 µM; in assay [3], above 10 µM; in assay [4], above 10 µM; on Melanocortin receptor 3, above 10 µM; on Progesterone receptor, above 30 µM; on Thromboxane A2 receptor it was above 10 µM. The AC50 in assay [5] is above 10 µM; at D(3) dopamine receptor, above 30 µM.

On to `NC(=O)C[S+]([O-])C(c1ccccc1)c1ccccc1` (configuration not stated) [MODAFINIL], for which the AC50 was above 30 µM in [1]; above 10 µM at Vasopressin V1a receptor; above 30 µM in assay [2]; above 30 µM at Cannabinoid receptor 1; above 30 µM in assay [3]; above 10 µM in assay [4]. The AC50 was 21.2 µM on Melanocortin receptor 3, above 30 µM at Thromboxane A2 receptor, above 10 µM in [5] and above 10 µM on D(3) dopamine receptor.

`CCN(CC)CCOC(=O)c1ccc(N)cc1` [PROCAINE]: the half-maximal activity concentration (AC50) in assay [1] is above 30 µM; in assay [2] it was above 30 µM; at Cannabinoid receptor 1, above 30 µM; in assay [3] it was above 30 µM; in assay [4], above 10 µM; at Melanocortin receptor 3, above 30 µM. Further, the AC50 (in assay [5]; on D(3) dopamine receptor) was above 30 µM each time.

Turning to `C#CCN(C)[C@H](C)Cc1ccccc1` [SELEGILINE], the AC50 in assay [1] was above 10 µM; on Cannabinoid receptor 1, above 30 µM; in assay [3] it was above 10 µM; in assay [4], above 10 µM; at Melanocortin receptor 3, above 10 µM; at Progesterone receptor it was above 10 µM. In addition, the AC50 on Thromboxane A2 receptor was above 10 µM; in assay [5], above 10 µM; at D(3) dopamine receptor, above 30 µM.

For `Cc1c(C(=O)Nc2ccc(N3C[C@@H](C)O[C@@H](C)C3)nc2)cccc1-c1ccc(OC(F)(F)F)cc1` [SONIDEGIB], the half-maximal activity concentration (AC50) is above 30 µM in [1]; above 10 µM at Vasopressin V1a receptor; above 30 µM in assay [2]; above 30 µM in assay [3]; above 30 µM on Melanocortin receptor 3; above 30 µM on Thromboxane A2 receptor. Also, the AC50 in assay [5] was above 10 µM.

Consider `CN[C@@H]1[C@H](O)[C@H](NC)[C@H]2O[C@@]3(O)C(=O)C[C@@H](C)O[C@H]3O[C@@H]2[C@H]1O` [SPECTINOMYCIN], for which the AC50 was above 10 µM in assay [1]; above 10 µM in assay [3]; above 30 µM in [4]; above 10 µM on Melanocortin receptor 3; above 10 µM at Progesterone receptor; above 10 µM on Thromboxane A2 receptor. Further, the AC50 was above 10 µM in assay [5] and above 30 µM at D(3) dopamine receptor.

In the case of `CC[C@]1(O)C[C@@H]2CN(CCc3c([nH]c4ccccc34)[C@@](C(=O)OC)(c3cc4c(cc3OC)N(C)[C@H]3[C@@](O)(C(N)=O)[C@H](O)[C@]5(CC)C=CCN6CC[C@]43[C@@H]65)C2)C1` [VINDESINE], the AC50 was above 30 µM in [1]; above 30 µM in [2]; 6.5 µM in assay [3]; above 30 µM in [4]; above 30 µM on Melanocortin receptor 3; above 30 µM on Progesterone receptor. Moreover, the AC50 (on Thromboxane A2 receptor; in assay [5]; on D(3) dopamine receptor) was above 30 µM in each case.
